Assay results taken from patent US20240009151A1, “FORMULATIONS OF AZOBENZENE PHOTOREACTIVE COMPOUNDS” (BAYON THERAPEUTICS, INC., priority 2020, published 2024).

Legend:
[1] = test system: retinal ganglion cells (RGCs) from rd1 retina; assay: multielectrode array (MEA) electrophysiology of isolated rd1 retinas, light response index (LRI); type: cell-based, mouse
Experimental: Isolated rd1 retinas were treated with formulations of 100 μM Compound 1 and increasing concentrations of SBE-CD, from 300 μM to 34000 μM. Light responsivity was measured using multielectrode array (MEA) electrophysiology. […] To quantify the degree of light-responsivity for each recorded cell, the normalized relative difference in observed spike frequencies with and without light stimulus was defined as the light response index (LRI): […]

[2] = test system: RGCs of rd1 retina; assay: single in vivo injection, time course of photosensitization of RGCs (spike rasters, LRI); parameters: species or system mouse; settings: 100 μM Compound 1 and 1200 μM SBE-CD, observed up to 28 days post-injection
Description: FIG. 3e is a scatter plot correlating the strength of light responses in RGCs and the abundance of Compound 1 in retinal tissue.

[3] = test system: RGCs of rd1-GCaMP6f retina; assay: 2-photon live calcium imaging of isolated rd1-GCaMP6f retina, fraction of light-responsive cells; type: cell-based, mouse; settings: 100 μM Compound 1; lower stoichiometry of SBE-CD (300 μM vs 1200 μM), synaptic blockers
Experimental: To better understand how Compound 1 was photosensitizing RGCs, an rd1 mouse line was generated expressing the genetically encoded calcium indicator GCalVIP6f under control of Synapsin-1 to label all neurons for 2-photon live imaging. Isolated retina from these mice were then treated with 100 uM Compound 1 and either 300 uM or 1200 uM SBE-CD and imaged in the presence of synaptic blockers. The latter concentration was chosen to increase the amount of available cyclodextrin around to potentiate the photosensitization while not completely quenching it. Due to the spectral overlap of Compound 1 absorbance with GCaMP6fref, an interline stimulus module was developed for the 2-photon microscope. […]
To determine which neurons were responding to light, collected movies were cross correlated to the stimulus periods using an autocorrelation estimation. […] These resulting correlated micrographs were then used to quantify the number of light-responsive cells. […]
The total number of cells were counted from a max Z-projection the same movies and used to determine the relative fraction of light-responsive cells per Compound 1 formulation. […] The activity was also rastered using the recorded ΔF/F of all neurons (FIG. 2e).

For `CCN(Cc1ccccc1)c1ccc(/N=N/c2ccc(NC(=O)C[N+](CC)(CC)CC)cc2)cc1` [Compound 1], the “dependence of LRI on the amount of SBE-CD used” value ([1]; 100 μM Compound 1, SBE-CD from 300 μM to 34000 μM) was “dose-response”, the “light response of RGCs (MEA)” value ([1]; 100 μM Compound 1 with 300 μM SBE-CD (minimal amount)) was “strongest light-responses” and the “light response of RGCs (MEA)” value ([1]; 100 μM Compound 1 with 34000 μM SBE-CD (excess)) was “nearly eliminated any light response”. The “photosensitization of the cells (LRI histograms)” value ([1]; excess of SBE-CD, compared to untreated rd1 tissue) was “very weakly”, the “number of light-responding RGCs (LRI histograms)” value ([1]; minimal amount of SBE-CD) was “greatly increased” and the “duration of photosensitization of RGCs” value [2] was “prolongs photosensitization”. The “number of RGCs that were light responsive (fraction of light-responding cells)” value [3] was “greater number of RGCs that were light responsive”.
